Source: paper PMC11673756, “Urolithin A Protects Hepatocytes from Palmitic Acid-Induced ER Stress by Regulating Calcium Homeostasis in the MAM” (Biomolecules, 2024)

Target: T1, CCDC47 (Coiled-Coil Domain Containing 47) (Homo sapiens, UniProt Q96A33)
T1 construct: endogenous CCDC47 in HepG2 cells
T1 sequence (Q96A33 21-483): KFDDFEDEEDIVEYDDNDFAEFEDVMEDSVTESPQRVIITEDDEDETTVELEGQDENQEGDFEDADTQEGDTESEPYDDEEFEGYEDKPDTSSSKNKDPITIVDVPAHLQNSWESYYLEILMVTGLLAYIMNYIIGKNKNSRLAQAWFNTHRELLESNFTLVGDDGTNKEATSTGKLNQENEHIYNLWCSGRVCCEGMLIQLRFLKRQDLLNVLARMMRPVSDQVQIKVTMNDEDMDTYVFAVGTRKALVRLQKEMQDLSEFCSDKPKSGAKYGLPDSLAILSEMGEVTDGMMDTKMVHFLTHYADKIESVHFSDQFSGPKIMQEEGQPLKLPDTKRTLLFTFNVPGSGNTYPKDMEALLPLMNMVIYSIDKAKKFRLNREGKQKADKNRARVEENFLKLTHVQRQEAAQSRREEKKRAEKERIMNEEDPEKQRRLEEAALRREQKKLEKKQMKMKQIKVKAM
Assay: isothermal CETSA at […] °C
Assay type: cell-based

`O=c1oc2cc(O)ccc2c2ccc(O)cc12` [UA, Urolithin A] showed an EC50 of about 38 µM.
